Like-named read-outs stand apart in the source and are kept apart here.
Tests used:
[1] = test system: Aβ 40 in conditioned medium of cells stably expressing Amyloid Precursor Protein (APP); test: In vitro BACE cell-based assay (Aβ 40 sandwich ELISA); conditions: Homo sapiens, HEK293
Procedure: In Vitro BACE Cell-Based Assay
The cell-based assay measures inhibition or reduction of […] in conditioned medium of test compound treated cells expressing amyloid precursor protein.
Cells stably expressing Amyloid Precursor Protein (APP) were plated at a density of 40K cells/well in 96 well plates (Costar). The cells were cultivated for 24 hours at 37° C. and 5% CO2 in DMEM supplemented with 10% FBS. The test compounds were then added to cells in 10-point dose response concentrations with the starting concentration being either 100 μM or 10 μM. The compounds were diluted from stock solutions in DMSO and the final DMSO concentration of the test compounds on cells was 0.1%. After 24 h of incubation with the test compounds the supernatant conditioned media was collected and the Aβ 40 levels were determined using a sandwich ELISA. The IC50 of the compound was calculated from the percent of control or percent inhibition of Aβ 40 as a function of the concentration of the test compound.
The sandwich ELISA to detect Aβ 40 was performed in 96 well microtiter plates, which were pre-treated with goat anti-rabbit IgG (Pierce). The capture and detecting antibody pair that were used to detect Aβ 40 from cell supernatants were affinity purified pAb40 (Biosource) and biotinylated 6E10 (Signet Labs Inc.), respectively. The optimal concentration for the pAb40 antibody was 3 μg/ml in Superblock/TBS (Pierce) that was supplemented with 0.05% Tween 20 (Sigma). Optimal concentration for the detection antibody 6E10-biotinylated was 0.5 μg/ml in Superblock/TBS (Pierce) that had been supplemented with 2% normal goat serum and 2% normal mouse serum.
Cellular supernatants were incubated with the capture antibody for 3 h at 4° C., followed by 3 wash steps in TBS-tween (0.05%). The detecting antibody incubation was for 2 h at 4° C., again followed by the wash steps as described previously. The final readout of the ELISA is Time-Resolved Fluorescence (counts per minute) using Delfia reagents Streptavidin-Europium and Enhancement solutions (Perkin Elmer) and the Victor 2 multilabel counter (Perkin Elmer).

Cathepsin D (Cat D) = Cathepsin D (Cat D) (Homo sapiens, UniProt P07339); test: In vitro enzymatic Cathepsin D (Cat D) FRET assay; type: biochemical; conditions: read-out: CatD IC50
Procedure: In Vitro Enzymatic Cathepsin D (Cat D) FRET (Fluorescence Resonance Energy Transfer) Assay
Recombinant Cat D was expressed in CHO cells. The assay buffer for CathepsinD is 0.05 M citrate pH 3.5, 10% DMSO final, 5 mM CHAPS. The Cat D enzyme (9 nM) is pre-incubated for one hour with inhibitors, typically in about 1 uL of DMSO according to a serial dilution, is added thereto. The assays are effectively started by the addition of different FRET substrates (20 nM for Cat D) and the combination is incubated for one hour. The FRET assay is terminated with by addition of Tris buffer, which raises the pH to neutrality, and the fluorescence is determined. The FRET substrate is a peptide with commercially available fluorophore and quencher, on opposite sides of the BACE cleavage site. The Cat D substrate peptide sequence is based on sequence #1 of Table 1 from Gulnik et al. FEBS Letters v413 p 379-384 1997. Proteolytic cleavage of the FRET substrate releases quenching of fluorescence (Cat D excitation 500 nm and emission 580 nm). […]
See, for instance, examples 8, 12, 15, 16, 18, 21-23, 24, 25, 26, 29, 30, 32, 41-42, 45, 53, 54, 57, 63, 67-69, 72-74, 76, 79-81, 83 & 84 (to point to just a few; referring to data in Table 2). […] See, for instance, examples 8, 12, 15, 18, 21-23, 25, 29, 30, 32, 41-42, 45, 54, 57, 67-68, 72-73, 76, 80-81, 84, 86, 91-92 & 100 (to point out those from compound examples 1-100; and with reference to data in Table 2).

[2] = target: Beta Secretase enzyme (BACE) (Homo sapiens, UniProt P56817); test: In vitro enzymatic BACE FRET assay; type: biochemical; conditions: read-out: BACE1 FRET assay IC50
Procedure: In Vitro Enzymatic BACE FRET (Fluorescence Resonance Energy Transfer) Assay (Enzyme Assay Data in the Example Table I)
The assay buffer used in this screen is 0.05 M acetate, pH 4.2, 10% DMSO final, 100 uM genapol (which is a nonionic detergent, below its Critical Micelle Concentration). The Beta Secretase enzyme (0.2 nM) is pre-incubated for one hour with inhibitors, typically in about 1 uL of DMSO according to a serial dilution, are added thereto. This assay is effectively started by the addition of FRET substrate (50 nM) and the combination is incubated for one hour. The FRET assay is terminated with by addition of Tris buffer, which raises the pH to neutrality, and the fluorescence is determined. The FRET substrate is a peptide with commercially available fluorophore and quencher, on opposite sides of the BACE cleavage site. Proteolytic cleavage of the FRET substrate releases quenching of fluorescence (excitation 488 nm and […]).

[3] = average IC50, HEK cell assay, Aβ 40 readout
[4] = average IC50, in vitro enzymatic BACE FRET assay

Sequence of Cathepsin D (Cat D) (P07339 65-412, species assumed): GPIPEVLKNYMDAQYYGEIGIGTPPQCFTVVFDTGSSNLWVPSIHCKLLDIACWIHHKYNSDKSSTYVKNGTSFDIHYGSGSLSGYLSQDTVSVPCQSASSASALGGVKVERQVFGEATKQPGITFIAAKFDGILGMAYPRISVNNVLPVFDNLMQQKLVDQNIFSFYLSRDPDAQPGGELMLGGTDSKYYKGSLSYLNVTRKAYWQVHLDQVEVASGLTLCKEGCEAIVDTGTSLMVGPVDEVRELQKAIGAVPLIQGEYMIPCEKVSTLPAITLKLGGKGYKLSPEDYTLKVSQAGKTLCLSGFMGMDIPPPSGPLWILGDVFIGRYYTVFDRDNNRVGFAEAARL
Sequence of Beta Secretase enzyme (BACE) (P56817 46-501): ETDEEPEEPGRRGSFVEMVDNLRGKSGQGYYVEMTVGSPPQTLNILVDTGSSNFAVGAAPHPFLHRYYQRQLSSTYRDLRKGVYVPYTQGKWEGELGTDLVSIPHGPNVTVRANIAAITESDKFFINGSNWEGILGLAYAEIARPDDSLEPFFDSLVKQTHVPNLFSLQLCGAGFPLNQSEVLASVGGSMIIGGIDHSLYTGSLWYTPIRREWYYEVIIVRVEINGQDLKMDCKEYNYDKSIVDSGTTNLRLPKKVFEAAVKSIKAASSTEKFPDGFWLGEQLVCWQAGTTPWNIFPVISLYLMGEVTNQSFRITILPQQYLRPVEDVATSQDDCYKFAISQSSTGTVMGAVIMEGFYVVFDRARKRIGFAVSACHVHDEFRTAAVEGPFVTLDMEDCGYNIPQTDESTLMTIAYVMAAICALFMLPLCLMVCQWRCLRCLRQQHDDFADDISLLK

| SMILES | IC50 ([1]; HEK cells, average IC50) | IC50 (Cathepsin D (Cat D)) | IC50 ([2]; average IC50) | IC50 [1, 3] | IC50 (Cathepsin D (Cat D); Cathepsin D FRET assay) | IC50 [2, 4] | IC50 ([1]; HEK cell, average IC50) |
| --- | --- | --- | --- | --- | --- | --- | --- |
| CC1(C)C(N)=N[C@]2(C)c3cc(NC(=O)c4ncc(C#N)cc4Cl)ccc3OCC[C@H]2S1(=O)=O [Example 174, N-((4aR,11bR)-2-amino-3,3,11b-trimethyl-4,4-dioxido-4a,5,6,11b-tetrahydro-3H-[1]benzoxepino[4,5-b][1,4]thiazin-10-yl)-3-chloro-5-cyano-2-pyridinecarboxamide] | 0.002 µM | 1070 µM | 0.002 µM | – | – | – | – |
| C[C@H]1C[C@@H]2[C@](C)(N=C(N)C(C)(C)S2(=O)=O)c2cc(NC(=O)c3cnc(OCc4ccn(C)n4)cn3)ccc2O1 [Example 82, N-((4aR,6S,11bR)-2-amino-3,3,6,11b-tetramethyl-4,4-dioxido-4a,5,6,11b-tetrahydro-3H-[1]benzoxepino[4,5-b][1,4]thiazin-10-yl)-5-((1-methyl-1H-pyrazol-3-yl)methoxy)-2-pyrazinecarboxamide] | – | – | – | 0.009 µM | 583 µM | 0.005 µM | – |
| C[C@H]1C[C@@H]2[C@](C)(N=C(N)C(C)(C)S2(=O)=O)c2cc(Nc3nccc4nc(OCc5ccn(C)n5)cnc34)ccc2O1 [Example 146, (4aR,6S,11bR)-3,3,6,11b-tetramethyl-N^~10^~-(2-((1-methyl-1H-pyrazol-3-yl)methoxy)pyrido[3,4-b]pyrazin-5-yl)-4a,5,6,11b-tetrahydro-3H-[1]benzoxepino[4,5-b][1,4]thiazine-2,10-diamine 4,4-dioxide] | – | – | – | 0.004 µM | 804 µM | 0.005 µM | – |
| COc1cnc2c(Nc3ccc4c(c3)[C@@]3(CF)N=C(N)C(C)(C)S(=O)(=O)[C@@H]3CCO4)nccc2n1 [Example 151, (4aR,11bS)-11b-(fluoromethyl)-N^~10^~-(2-methoxypyrido[3,4-b]pyrazin-5-yl)-3,3-dimethyl-4a,5,6,11b-tetrahydro-3H-[1]benzoxepino[4,5-b][1,4]thiazine-2,10-diamine 4,4-dioxide] | – | – | – | 0.068 µM | > 400 µM | 0.037 µM | – |
| COc1cnc(C(=O)Nc2ccc3c(c2)[C@@]2(CF)N=C(N)C(C)(C)S(=O)(=O)[C@H]2C[C@H](C)O3)cn1 [Example 108, N-((4aS,6S,11bS)-2-amino-11b-(fluoromethyl)-3,3,6-trimethyl-4,4-dioxido-4a,5,6,11b-tetrahydro-3H-[1]benzoxepino[4,5-b][1,4]thiazin-10-yl)-5-methoxy-2-pyrazinecarboxamide] | – | – | – | 0.018 µM | 388 µM | 0.013 µM | – |
| Cc1cc(C#N)cnc1C(=O)Nc1ccc2c(c1)[C@@]1(C)N=C(N)C(C)(C)S(=O)(=O)[C@@H]1CCO2 [Example 192, N-((4aR,11bR)-2-amino-3,3,11b-trimethyl-4,4-dioxido-4a,5,6,11b-tetrahydro-3H-[1]benzoxepino[4,5-b][1,4]thiazin-10-yl)-5-cyano-3-methyl-2-pyridinecarboxamide] | 0.001 µM | 434 µM | 0.002 µM | – | – | – | – |
| Cc1cc(C(F)(F)F)cnc1C(=O)Nc1ccc2c(c1)[C@@]1(C)N=C(N)C(C)(C)S(=O)(=O)[C@@H]1CCS2 [Example 132, N-((4aR,11bR)-2-amino-3,3,11b-trimethyl-4,4-dioxido-4a,5,6,11b-tetrahydro-3H-[1]benzothiepino[4,5-b][1,4]thiazin-10-yl)-3-methyl-5-(trifluoromethyl)-2-pyridinecarboxamide] | – | – | – | 0.0008 µM | 357 µM | 0.002 µM | – |
| CC1(C)C(N)=N[C@]2(C)c3cc(Nc4nccc5cc(C#N)cnc45)ccc3CCC[C@@H]2S1(=O)=O [Example 33, 8-(((4aS,11bR)-2-amino-3,3,11b-trimethyl-4,4-dioxido-3,4a,5,6,7,11b-hexahydrobenzo[3,4]cyclohepta[1,2-b][1,4]thiazin-10-yl)amino)-1,7-naphthyridine-3-carbonitrile] | – | 286 µM | 0.029 µM | – | – | – | 0.097 µM |
| Cc1cc(OC(F)F)cnc1C(=O)Nc1ccc2c(c1)[C@@]1(C)N=C(N)C(C)(C)S(=O)(=O)[C@@H]1CCS2 [Example 118] | – | – | – | 0.002 µM | 207 µM | 0.002 µM | – |
